Each structure is given as a SMILES string. “Also recorded” adds a separate entry of the source.

Series [1] is described as follows: Odor and H2S generation of 4-alkylresorcinol solutions during storage. In kind it is physicochemical. As to conditions: as stabilizer of 4-substituted resorcinols. The procedure:
(§1) Samples were prepared by dissolving 4-hexylresorcinol (HR) (200 mg) or 4-ethylresorcinol (ER) (200 mg) in DI water:butylene glycol (4:1; 20 ml) to generate a clear colorless homogeneous solution. A portion of each solution (5 ml) was added to a 20 ml scintilation vial containing either niacinamide (B3) (50 mg), NDAC (N,N′-diacetyl-L-cystine) (50 mg), NACys (N-acetyl-L-cysteine) (50 mg), B3 (50 mg)+NDAC (50 mg) or B3 (50 mg)+NACys (50 mg). A hydrogen sulfide (H2S) test strip (Sigma) was placed above the sample solution and the samples sealed. Odor and H2S generation (unchanged test strip white color=no H2S generated; changed test strip brown/black color=H2S generated) were monitored for 2 weeks at R.T. (about 20 to about 22° C.).

Series [2] in a line: Color of 4-alkylresorcinol solutions after storage (visual appearance and L*a*b*, Labscan XE). Type of series: physicochemical. As for the experimental part: as §1
After 2 weeks of storage at R.T. (about 20 to about 22° C.), the color of each solution was assessed visually. Additionally, L*a*b* measurements determined experimentally using a Labscan XE instrument (Hunter Associates Labs Inc., Reston, Va.) and processed with Universal Software (version 4.10). The L* parameter measures darkness and lightness and ranges from black (L*=0) to white (L*=100). The a* parameter measures color content and intensity ranging from green (a*<0) to neutral grey (a*=0) to red (a*>0). The b* parameter also measures color content and intensity ranging from blue (b*<0) to neutral grey (b*=0) to yellow (b*>0).

A short description of series [3]: HPLC quantitation of 4-hexylresorcinol (HR) remaining after storage. Type of series: physicochemical. The procedure:
The amount of 4-hexylresorcinol (HR) or 4-ethylresorcinol (ER) present in each of the samples used for the color measurements was quantitated after 2 weeks @ R.T. (˜20-22° C.) by high performance liquid chromatography (HPLC). A sample aliquot (100 uL) from each of the color measurement solutions was diluted with DI water:acetonitrile (1:1, 900 uL) to generate test samples (1 ml). An aliquot (10 uL) from each test sample was injected into a Waters 2695 Separations Module, chromatographed and separated on a Restek Pinnacle DB C18 (5 μm, 4.6×150 mm) column operated at 30° C. and the 4-alkylresorcinols monitored using a Waters 2996 Photodiode Array Detector set @ 281 nm. […] Standard control samples of HR at 1×, 5×higher and 5×lower concentrations were prepared fresh and immediately analysed; standard curves were generated within the test sample range and linearity was confirmed.
All samples were analyzed in duplicate and the mean value reported. The amount of 4-alkylresorcinol present for each test sample after 2 weeks was determined by measuring the chromatographic peak area under the curve @ 281 nm for HR and expressed as the percent ratio over the corresponding chromatographic peak area under the curve @ 281 nm for the freshly prepared control sample.

The conditions of series [4]: biologically acceptable vehicle, neutral pH range; cited from earlier work.
The mark [5] stands for this setting: freshly prepared solution of HR.

On to `CCOC(=O)[C@@H](N)CSSC[C@H](N)C(=O)OCC` [DEC, Cystine diethyl ester], for which, in series [1], the “sulfurous odor generation by the stabilizer (in words)” value (from here on “sulfurous odor generation”) is reported as “sulfurous odor generating”.

With `CCCCCCc1ccc(O)cc1O` [HR, 4-hexylresorcinol], the “color of freshly prepared solution” value in series [2] (setting [5]) was “colorless”. Further, the “decomposition of HR upon HPLC analysis” value in series [3] (setting [5]) was “no decomposition”. Turning to `CC(=O)N[C@@H](CS)C(=O)O` [NACys, N-acetyl-L-cysteine], the “sulfurous odor generation” value in series [1] is “generates sulforous odor; also recorded: sulfurous odor generating; also recorded: upleasant sulfurous odor”. For the same molecule, in series [3], the “stabilizing resorcinol derivatives (in words)” value is listed as “effective”. Regarding `CC(=O)N[C@@H](CSSC[C@H](NC(C)=O)C(=O)O)C(=O)O` [NDAC, N,N′-diacetyl-L-Cystine], the “prevention of color formation / discoloration (in words)” value in series [2] (after 2 weeks at R.T., in the presence or absence of B3) is reported as “effective”. The “sulfurous odor generation” value in series [1] is listed as “no sulfurous odor generation”.

Take `N[C@@H](CSSC[C@H](N)C(=O)O)C(=O)O` [cystine]: in series [4], the solubility result is listed as “extremely low”.

(Values after patent US20230165772A1, “STABILIZED COSMETIC COMPOSITIONS WITH N, N'-DI-ACETYL CYSTINE” (Conopco, Inc., d/b/a UNILEVER, priority 2020, published 2023).)
